Key:
SKNBE-2 cells = test: Cell growth assay, Day 14; type: cell-based, human
Procedure: (§1) For LuTate treatment, aliquots of 4 × 10^6 cells were collected and resuspended in 500 μl DMEM + 1% FCS, and treated with either 0, 5, 10 or 20 MBq/mL LuTate for 4 h in suspension at 37°C and 5% CO2 with mixing every hour. Cells were resuspended in 4 mL full media and plated in 6 well plates at a concentration of 0.5 × 10^6 cells per well. For drug combination experiments, 24 h post LuTate treatment, cells were treated with either 0.5 μM or 1 μM of either AZD-7648 or nedisertib.
(§2) Cell growth was tracked over a 14-day period. Cells were counted and replated at 0.2 × 10^6 cells per well on Days 2, 6 and 9, with a final count on Day 14. Because of the exponential growth or significant lethality of the various cultures, not all cells were necessarily re-seeded at each subculture interval. However, the cell growth assay data is corrected for the fraction of cells re-plated so the data is expressed for all conditions as though all cells were re-plated at each interval (illustrated in Supplementary Figure S1). The total number of cells is thus the theoretical total number of cells over time if all cells at each subculture interval were re-seeded at identical density, calculated by: […]
Cell growth was normalised to the appropriate control for each experiment. […]

H1299-7 cells [1] = test: Cell growth assay over 14 days, LuTate alone or with DNA-PK inhibitor; type: cell-based, human; details: parental H1299-7 cells, 20 MBq/mL LuTate
Description: Total Cells = Cell Number counted (1 well) × Number of Wells required
Number of Wells required going forward = Total Cells/0.2 × 10^6
Cell growth was normalised to the appropriate control for each experiment. […] All assays were repeated as at least biological triplicates.

H1299-7 cells [2] = test: LuTate retention assay; type: cell-based, human; details: H1299-7 control cells, 4 h treatment with 5 MBq/mL LuTate then 24 h in fresh medium, gamma counter, biological triplicates
Procedure: (§3) H1299-7, H1299-7 Cas9, MVP KO and Beta-Arrestin 2 KO cells were treated with either 0 or 5 MBq/mL LuTate using the same suspension protocol as for the growth experiments. After 4 h of treatment, cells were washed and triplicate aliquots collected for the 4 h timepoint, and the remaining cells plated in triplicate in 6 well plates for 24 h. For collection of samples, cells were spun down, washed twice, and resuspended in 500 μl PBS. All experiments were repeated as biological triplicates. Samples were stored at RT for 2-3 half-lives of LuTate (2-3 weeks), before being counted on the Captus 4000e gamma counter (Capintec). Percent LuTate retained by the cells was calculated as a percent of total activity added and averaged across the triplicate experiments.

H1299-7 MVP KO cells [3] = test: LuTate retention assay; type: cell-based, human; details: 5 MBq/mL LuTate for 4 h
Procedure: as §3

[4] = system: H1299-7 Beta-Arrestin 2 KO cells; test: LuTate retention assay; type: cell-based, human; details: 4 h treatment with 5 MBq/mL LuTate then 24 h in fresh medium, gamma counter, biological triplicates, p-value 0.01 vs control
Procedure: as §3

H1299-7 xenografts = test: H1299-7 xenograft in BALB/c nude mice; type: in vivo; details: single agent: 6 MBq LuTate single iv dose, or nedisertib 150 mg/kg oral for 6 days
Procedure: (§4) All animal experiments were performed with approval from the Peter MacCallum Cancer Centre Animal Experimentation Ethics Committee, and in accordance with the Australian code for the care and use of animals for scientific purposes (8th Edition, 2013). Four- to seven-week-old female BALB/c nude mice were sourced from Animal Resources Centre (Canning Vale, Western Australia). 3 × 10^6 AR42J or 5 × 10^6 H1299-7 cells were subcutaneously implanted onto the right flank of the mice in a 50% Matrigel (Corning):PBS mixture. Mice were weighed, and tumours measured twice weekly using electronic calipers. Tumour volume (mm^3) was calculated as length × width × height × π/6. Once tumours reached a volume of 50-300 mm^3, the animals were randomised into groups of 9-10 mice and injected intravenously with a single dose (5-10 MBq in 100-200 μL) LuTate or vehicle (saline). At 24 h post LuTate injection mice began once-daily oral dosing of DNA-PK inhibitor nedisertib (150 mg/kg) or vehicle (10% DMSO, 40% PEG300, 5% Tween-80, 45% saline) in a volume of 10 ml/kg for 6 consecutive days. Mice were monitored 2-3 times weekly for overall weight as an indicator of murine health and tumour volume measured. Mice were euthanised once the tumour volume exceeded 1200 mm^3.

H1299-7 Artemis KO cells = test: Cell growth assay over 14 days; type: cell-based, human
Procedure: (§5) Two gRNA (from the Brunello library, as determined in the MaGeCK count files) with the most significant enrichment or depletion for the genes to be validated, were pooled and nucleofected into H1299-7 Cas9 cells, using the Amaxa 4D nucleofector (Lonza), solution SF and program EW-127 (Lonza, optimised protocol for H1299 cells). Cells were nucleofected with 75 pmol of each gRNA in 20 μl (gRNA from Integrated DNA Technologies, sequences in supplementary Table 2). Efficiency of gene knockout was determined at 72 h post nucleofection through western blot or DNA sequencing. The resulting cell lines were H1299-7 Beta-Arrestin 2 knockout (KO), MVP KO, Artemis KO, and DNA-PK KO.
as §1, §2
(§6) Cell growth was normalised to the appropriate control for each experiment. For growth curves showing validation of the CRISPR result, results were graphed showing the alteration in cell population, as compared to control, over time (out to Day 14). For all other assays (combination experiments, and experiments using AR42J or SKNBE-2 cells), results are shown comparing cell population at the Day 14 timepoint. All assays were repeated as at least biological triplicates.

H1299-7 MVP KO cells [5] = test: Cell growth assay over 14 days; type: cell-based, human; details: 5 MBq/mL LuTate
Procedure: as §5, §1, §2, §6

H1299-7 DNA-PK KO cells = test: Cell growth assay over 14 days; type: cell-based, human
Procedure: as §5, §1, §2, §6

[6] = system: H1299-7 Beta-Arrestin 2 KO cells; test: Cell growth assay over 14 days; type: cell-based, human
Procedure: as §5, §1, §2, §6

AR42J tumours = test: AR42J xenograft in BALB/c nude mice; type: in vivo, mouse
Procedure: as §4

unselected tumours = details: phase I clinical trial, cited from earlier work
Description: To this end, several clinical trials are evaluating the tolerability and efficacy of nedisertib in humans. […] Current clinical trials are focusing on the combination of nedisertib and radiotherapy in the setting of pancreatic cancers (NCT04172532) and glioblastoma and gliosarcoma (NCT04555577), as well as others. Additionally, there are two studies investigating the combination ...

## C[C@@H](O)[C@H](NC(=O)[C@@H]1CSSC[C@H](NC(=O)[C@@H](Cc2ccccc2)NC(=O)CN2CCN(CC(=O)[O-])CCN(CC(=O)[O-])CCN(CC(=O)[O-])CC2)C(=O)N[C@@H](Cc2ccc(O)cc2)C(=O)N[C@H](Cc2c[nH]c3ccccc23)C(=O)N[C@@H](CCCCN)C(=O)N[C@@H]([C@@H](C)O)C(=O)N1)C(=O)O.[177Lu+3] [LuTate, ^177Lutetium-DOTA-octreotate]
SKNBE-2 cells; 20 MBq/mL LuTate alone, Day 14
  reduction of survival: 50%
SKNBE-2 cells; LuTate doses of less than 10 MBq/mL
  effect on cell survival: little effect
H1299-7 cells [1]
  survival (expansion of parental cells): < 0.1%
H1299-7 cells [2]
  LuTate retained (percent of total activity added): 32%
H1299-7 MVP KO cells [3]
  amount of LuTate retained versus control cells: no alteration
[4]
  LuTate retained (percent of total activity added): 14.5%
H1299-7 xenografts
  impact on tumour growth or survival compared to untreated controls: no impact
H1299-7 Artemis KO cells; 5 MBq/mL LuTate, Day 14, p value 0.0021
  times more sensitive to LuTate than control cells: 20 times
H1299-7 Artemis KO cells; 10 MBq/mL LuTate
  cell population by Day 14: almost completely eradicated
H1299-7 Artemis KO cells; 10 MBq/mL LuTate for 4 h in suspension
  relative growth (% of control) at Day 14: 0.0038%
H1299-7 Artemis KO cells; 20 MBq/mL LuTate for 4 h
  relative growth (% of control) at Day 14: 0.000296%
H1299-7 MVP KO cells [5]
  increase in relative growth versus parental H1299-7 cells: two-fold
H1299-7 DNA-PK KO cells; 5 MBq/mL LuTate, Day 14, p value 0.0017
  times more sensitive to LuTate than control cells: 10 times
H1299-7 DNA-PK KO cells; 10 MBq/mL LuTate
  cell population by Day 14: almost completely eradicated
[6]; 5 MBq/mL LuTate
  increase in relative growth versus parental H1299-7 cells: two-fold
[6]; 10 MBq/mL LuTate, p-value 0.015
  increase in survival versus parental H1299-7 cells: four-fold
AR42J tumours; AR42J tumours, 9 MBq LuTate single dose with or without 6 days nedisertib 150 mg/kg, 9-10 mice per group
  tumour control post the end of treatment: 10 days
AR42J tumours; AR42J xenograft mice, 9 MBq LuTate with or without nedisertib 150 mg/kg for 6 days, vehicle control 10 days, p-value 0.0001
  median survival: 28 days

## COc1ccc([C@@H](O)c2cc(-c3ncnc4cc(N5CCOCC5)ccc34)c(F)cc2Cl)nn1 [nedisertib]
Unselected tumours; unselected tumours
  efficacy in humans: modest efficacy
Unselected tumours
  tolerability in humans: well tolerated
H1299-7 xenografts
  impact on tumour growth or survival compared to untreated controls: no impact
